# From US8575170B2, “Flurbiprofen analogs and methods of use in treating cancer” (The Regents of the Unversity of Colorado, a body corporate, priority 2010, dated 2013)
# Like-named read-outs stand apart in the source and are kept apart here.
# How the values were obtained:
# H2122 = test: MTT cell viability, H2122 lung carcinoma cell line; format: cell-based; conditions: IC50 values for the H2122 lung carcinoma cell line, Table 5, read-out: H2122 In vitro
# Experimental: The ability of the flurbiprofen analog compounds of the invention to inhibit cancer cell growth and survival (viability) in a variety of cancer lines was examined in a standard MTT assay for cell viability, as detailed in Example 2.
# The IC50 values given in Tables 1-4 were measured using the B1031 ([…]) compound) shown in Section IIB above. To confirm the generality of the results with respect to other fluribprofen analogs prepared in accordance with the invention, IC50 values for the other 11 analog compounds given in Section IIB were similarly determined for the H2122 lung carcinoma cell line.
# The studies reported in Tables 1-3 above were carried out by incubating the cells in the test compound for four days, under standard cell-culture conditions, and measuring cell survival on day 5 (see Example 2).
# Cell growth and survival following treatment with N—[(S)-2-Fluoro-α-methyl-4-biphenylacetyl]-[L-(4-phenylphenyl)alanine]-N-(2,2,6,6-tetramethyl-4-piperidinyl)amide (GCBH-110=B1031; (S)-Fmba-L-Bip-Atmp) were measured by a rapid colorimetric assay based on the tetrazolium salt MTT (3-(4,5-dimethylthiazol-2-yl)-2,5-diphenyl tetrazolium bromide) (Mosmann, J. Immunol. Methods 65: 55-63, 1983, with minor modifications).
# Briefly, approximately 1,000-5,000 cancer cells from 15 different cancer cells lines were plated in 100 μL of growth medium in 96-well flat-bottomed microtiter plates. Cells were incubated overnight to allow recovery. Compounds to be tested were added to the cells in triplicate in a range of concentrations and the cells were incubated at 37° C., 5% CO2, with 100% humidity. Control cells were treated in the same way without antagonists. […] Plates were incubated for 4 days, allowing sufficient time for cell replication and compound-induced cell death to occur. On day 5, 25 μL of a 2 mg/mL solution of MTT (Sigma) dissolved in RMPI-1640 was added to each well. The plate was incubated for 4 h at 37° C. The supernatant liquid was removed and the blue formazan complex was dissolved by adding 100 μL of 0.02 N HCl in 75% isopropanol to all wells. Absorbance was immediately determined using a scanning multiwell plate reader.
# [1] = Solubility of flurbiprofen analog compounds; format: physicochemical; conditions: medium in which the compound is soluble, Table 5
# HT-29 colon cancer cells = test: Loss in cell viability, HT-29 colon cancer cells; format: cell-based; conditions: Homo sapiens; HT-29 colon cancer cell, FIG. 6A
# Experimental: FIGS. 6A and 6B show the loss in cell viability in HT-29 colon cancer cells, in response to increasing concentrations of GH 502 (GCBH 118) (FIG. 6A), and the effect of various treatments, including increasing concentration of GH501 (GCBH 110) on U251 malignant glioma cells and BTIC EF12 brain tumor initiating stem cells (FIG. 6B).
# The study shown in FIG. 6A examined the effect of GCBH-118 (GH502) on an HT-29 colon cancer cell, showing an IC50 value of about 1 μM. […] The graph indicates an IC50 value for the B1031 compound against the U251 brain cancer cell line of between 2 and 10 μM.
# [2] = test system: H2122 lung carcinoma solid tumor xenograft; test: H2122 lung carcinoma xenograft in nude mice; format: in vivo, athymic nude mice; conditions: 5 mg/kg daily intraperitoneal, from day 7 after implantation, over the 25 days of treatment, FIG. 11
# Experimental: The efficacy of the treatment method was examined for both lung carcinoma-cell tumors and pancreatic-cell tumors implanted in athymic mice, according to the method detailed in Example 3. In the first study, mice injected with lung-carcinoma cells were treated, seven days after cancer-cell implantation, by daily injection of 5 mg/kg body weight of one of three different flurbiprofen analog compounds: B1005 (GCBH 104); B1020 (GCBH 108) and B1031 (GCBH 110). Tumor size was measured by calipers at the days indicated in FIG. 11, with final tumor weight and volume being determined by extracting the tumor from the sacrificed animals.
# Compounds having high in vitro cytotoxic activity were tested against implanted tumors in vivo. In one study, athymic nude mice were implanted subcutaneously with suspensions of approximately 2 million H2122 lung carcinoma cells, in Matrigel suspension. On the seventh day after tumor implantation, groups of 5 mice bearing implants were injected intraperitoneally with the compounds being tested at 5 mg/kg/every day; control animals were injected with an equal volume of isotonic saline. […] Tumor size was measured with a caliper three times per week. Tumor volume was calculated by the formula: Volume (cc)=3.14×(length)×(width)^2/6
# At autopsy, tumors were removed and weighed. Tumor inhibition was calculated on both weight and measurement basis.
SMILES,IC50 (H2122) [nM],Solubility [1] [% DMSO],"IC50 (H2122; Homo sapiens, NCI-H2122) [nM]",IC50 (HT-29 colon cancer cells) [nM],inhibition of growth of the lung carcinoma cell line H2122 tumor [2] [%]
"CC(C(=O)N[C@@H](Cc1ccc(OCc2c(Cl)cccc2Cl)cc1)C(=O)NC1CC(C)(C)NC(C)(C)C1)c1ccc(-c2ccccc2)c(F)c1 (stereo partly drawn) [GCBH-112, N—[(R,S)-2-Fluoro-α-methyl-4-biphenylacetyl]-[O-(2,6,dichlorobenzyl)-L-tyrosine]-N-(2,2,6,6-tetramethyl-4-piperidinyl)amide]",1600,50,,,
"CC(C(=O)N[C@@H](Cc1cccnc1)C(=O)NC1CC(C)(C)NC(C)(C)C1)c1ccc(-c2ccccc2)c(F)c1 (stereo partly drawn) [GCBH-118, N—[(R,S)-2-Fluoro-α-methyl-4-biphenylacetyl]-(β-3-pyridyl-L-alanine)-N-(2,2,6,6-tetramethyl-4-piperidinyl)amide]",,,1400,~1000,
"CC(C(=O)N[C@@H](CC1CCCCC1)C(=O)NC1CC(C)(C)NC(C)(C)C1)c1ccc(-c2ccccc2)c(F)c1 (stereo partly drawn) [GCBH-116, N—[(R,S)-2-Fluoro-α-methyl-4-biphenylacetyl]-(β-cyclohexyl-L-alanine)-N-(2,2,6,6-tetramethyl-4-piperidinyl)amide]",,20,2300,,
"C[C@H](C(=O)N[C@@H](Cc1ccc(C(F)(F)F)cc1)C(=O)NC1CC(C)(C)NC(C)(C)C1)c1ccc(-c2ccccc2)c(F)c1 [GCBH-122, N—[(S)-2-Fluoro-α-methyl-4-biphenylacetyl]-[(4-trifluoromethyl)-L-phenylalanine]-N-(2,2,6,6-tetramethyl-4-piperidinyl)amide]",,50,2100,,
"C[C@H](C(=O)N[C@@H](Cc1ccc(F)cc1)C(=O)NC1CC(C)(C)NC(C)(C)C1)c1ccc(-c2ccccc2)c(F)c1 [GCBH-124, N—[(S)-2-Fluoro-α-methyl-4-biphenylacetyl]-[(4-fluoro)-L-phenylalanine]-N-(2,2,6,6-tetramethyl-4-piperidinyl)amide]",,20,2500,,
CC(C(=O)N[C@H](C(=O)NC1CC(C)(C)NC(C)(C)C1)C(c1ccccc1)c1ccccc1)c1ccc(-c2ccccc2)c(F)c1 (some centres unmarked) [GCBH-106],,50,1200,,
"C[C@H](C(=O)NC(CC(=O)NC1CC(C)(C)NC(C)(C)C1)c1ccc(-c2ccccc2)cc1)c1ccc(-c2ccccc2)c(F)c1 (stereo partly drawn) [GCBH-120, N—[(S)-2-Fluoro-α-methyl-4-biphenylacetyl]-[R,S,-β-(p-biphenyl)-β-alanine]-N-(2,2,6,6-tetramethyl-4-piperidinyl)amide]",,50,5400,,
"CC(C(=O)N[C@@H](Cc1csc2ccccc12)C(=O)NC1CC(C)(C)NC(C)(C)C1)c1ccc(-c2ccccc2)c(F)c1 (stereo partly drawn) [GCBH-114, N—[(R,S)-2-Fluoro-α-methyl-4-biphenylacetyl]-(L-3-benzothienylalanine)-N-(2,2,6,6-tetramethyl-4-piperidinyl)amide]",,50,1200,,
"CC(C(=O)N[C@@H](Cc1ccc(OCc2c(Cl)cccc2Cl)cc1)C(=O)NCCCN1CCN(C)CC1)c1ccc(-c2ccccc2)c(F)c1 (stereo partly drawn) [GCBH-102, N—[(R,S)-2-Fluoro-α-methyl-4-biphenylacetyl]-[O-(2,6,dichlorobenzyl)-L-tyrosine]-N-[3-(4-methyl-1-piperizinyl)propyl]amide]",8000,20,,,
"CC(C(=O)N[C@@H](Cc1ccc(-c2ccccc2)cc1)C(=O)NC1CC(C)(C)NC(C)(C)C1)c1ccc(-c2ccccc2)c(F)c1 (stereo partly drawn) [GCBH-104, N—[(R,S)-2-Fluoro-α-methyl-4-biphenylacetyl]-[L-(4-phenylphenyl)alanine]-N-(2,2,6,6-tetramethyl-4-piperidinyl)amide]",,,,,74
C[C@H](C(=O)N[C@@H](Cc1ccc(N(CCCl)CCCl)cc1)C(=O)NC1CC(C)(C)NC(C)(C)C1)c1ccc(-c2ccccc2)c(F)c1 [GCBH-126],,20,3800,,
"CC(C(=O)N[C@@H](Cc1ccc(OCc2c(Cl)cccc2Cl)cc1)C(=O)NC1CC(C)(C)NC(C)(C)C1)c1ccc(-c2ccccc2)c(F)c1 (stereo partly drawn) [GCBH-100, N—[(R,S)-2-Fluoro-α-methyl-4-biphenylacetyl]-[O-(2,6,dichlorobenzyl)-L-tyrosine]-N-(2,2,6,6-tetramethyl-4-piperidinyl)amide]",,50,4000,,
